Values after ≈ are worked out from the molar mass of the structure shown. Where two headings read alike, the source gives them in different places.
How the values were obtained:
[1] = tested on: Pseudomonas aeruginosa NCTC10490; test: In vitro antibacterial activity, two-fold agar-plate dilution method (MIC); type: cell-based
Method: (§1) In vitro antibacterial activity was determined by the two-fold agar-plate dillution method.
(§2) One loopful of an overnight culture of each test starin in Trypticase-soy broth (10^6 viable cells per mt) was streaked on heart infusion agar (Muller-Hinton Agar) containing graded concentrations of representative test compound, and the minimal inhibitory concentration (MIC) was expressed in terms of µg/ml after incubation at 37°C for 16 hours.

[2] = tested on: Salmonera schottmuelleri 8001; test: as above; type: cell-based; conditions: 37°C for 16 hours
Method: as §1, §2

[3] = tested on: Staphyrococcus aureus FDA209JC-1; test: as above; type: cell-based
Method: as §1, §2

[4] = tested on: Staphyrococcus aureus MS 353; test: as above; type: cell-based
Method: as §1, §2

[5] = tested on: Pseudomonas aeruginosa PAO1; test: as above; type: cell-based
Method: as §1, §2

[6] = tested on: Micrococcus luteus ATCC9341; test: as above; type: cell-based
Method: as §1, §2

[7] = tested on: Salmonera typhimurium IID 971; test: as above; type: cell-based; conditions: 37°C for 16 hours
Method: as §1, §2

[8] = tested on: Butilus subtilis ATCC6633; test: as above; type: cell-based; conditions: 37°C for 16 hours
Method: as §1, §2

[9] = tested on: Staphyrococcus pyogenes COOK; test: as above; type: cell-based
Method: as §1, §2

[10] = tested on: Escherichia coli K-12C-600; test: as above; type: cell-based; conditions: K12C600, 37°C for 16 hours
Method: as §1, §2

[11] = tested on: Staphyrococcus Terajima; test: as above; type: cell-based
Method: as §1, §2
(§3) In vitro antibacterial activities of other compounds of the present invention were determined in the same way as in Example 26.

[12] = tested on: Pseudomonas aeruginosa IFO3445; test: as above; type: cell-based
Method: as §1, §2, §3

[13] = tested on: Enterobacter cloacae 963; test: as above; type: cell-based
Method: as §1, §2, §3

[14] = tested on: E.coli 81; test: In vivo antibacterial activity: survival of mice infected with E.coli 81; parameters: species or system ICR strain male mice
Method: Experiment was performed in ICR strain male mice (5W) weighing 22 to 25 g. The animals were used in a group of 10 per regimen. Test organism, E.coli 81, was cultured on Mueller-Hinton agar over night at 37°C and suspended in saline to be one minimal lethal dose (5 x 10^5 cells/head). One mililitre of the bacterial suspension was injected intrapenetoreally and, after 15 minutes, mice were treated subcutaneously with various doses of compound (100) and comparative compound B. Survival mice were counted for 4 days and final observation was carried out on day 4.

[15] = tested on: E.coli 81; test: MIC in E.coli 81 (Table IV); type: cell-based; conditions: Escherichia coli, 81, 16 h, read-out: MIC (μg/mℓ) in E.coli 81
Method: as §1, §2

[16] = tested on: E.coli 81; test: Duration of antibiotic activity: survival of mice dosed before E.coli 81 infection; type: in vivo, ICR strain male mice
Method: The duration of antibiotic activity of compound (100) was determined.
Experiment was performed in ICR strain male mice (5W). The animals were used in a group of 10 per regimen. A solution of E.coli 81 was injected intrapenetreally at a dose of 5 x 10^5 cell/head. Before one or three hours, the compound (100) was injected subcutaneously at a dose of 0.5 mg/head. Survival mice were counted on day 4 after injection.

[17] = tested on: Proleus morgani IFO3848; test: In vitro antibacterial activity, two-fold agar-plate dilution method (MIC); type: cell-based; conditions: 37°C for 16 hours, read-out: MIC
Method: as §1, §2, §3

[18] = tested on: Proleus vulgaria OX-19; test: as above; type: cell-based; conditions: 37°C for 16 hours, read-out: MIC
Method: as §1, §2, §3

[19] = tested on: Salmonera paratyphi 1015; test: as above; type: cell-based; conditions: 16 h
Method: as §1, §2, §3

[20] = tested on: Proleus vulgaris IFO 3850; test: as above; type: cell-based; conditions: Proleus vulgaris IFO 3850; agar dilution, 37°C for 16 hours; read-out: MIC
Method: as §1, §2, §3

[21] = tested on: Serratia marcescens IAM1184; test: as above; type: cell-based; conditions: Serratia marcescens IAM1184; agar dilution, 37°C for 16 hours; read-out: MIC
Method: as §1, §2, §3

[22] = Pseudomonas aeruginosa NCTC10490, agar dilution, 37°C for 16 hours, read-out: MIC
[23] = Staphyrococcus aureus FDA209JC-1, agar dilution, 37°C for 16 hours, read-out: MIC
[24] = Staphyrococcus aureus MS 353, agar dilution, 37°C for 16 hours, read-out: MIC
[25] = Pseudomonas aeruginosa PAO1, agar dilution, 37°C for 16 hours, read-out: MIC
[26] = Micrococcus luteus ATCC9341, agar dilution, 37°C for 16 hours, read-out: MIC
[27] = Staphyrococcus pyogenes COOK, agar dilution, 37°C for 16 hours, read-out: MIC
[28] = Dose 0.016 mg/head subcutaneously 15 minutes after intraperitoneal E.coli 81 (5 x 10^5 cells/head)
[29] = Dose 0.032 mg/head subcutaneously 15 minutes after intraperitoneal E.coli 81 (5 x 10^5 cells/head)
[30] = Dose 0.063 mg/head subcutaneously 15 minutes after intraperitoneal E.coli 81 (5 x 10^5 cells/head)
[31] = Dose 0.125 mg/head subcutaneously 15 minutes after intraperitoneal E.coli 81 (5 x 10^5 cells/head)
[32] = Dose 0.25 mg/head subcutaneously 15 minutes after intraperitoneal E.coli 81 (5 x 10^5 cells/head)
[33] = Dose 0.5 mg/head subcutaneously 15 minutes after intraperitoneal E.coli 81 (5 x 10^5 cells/head)
[34] = Staphyrococcus Terajima, agar dilution, 37°C for 16 hours, read-out: MIC
[35] = Pseudomonas aeruginosa IFO3445, agar dilution, 37°C for 16 hours, read-out: MIC
[36] = Enterobacter cloacae 963, agar dilution, 37°C for 16 hours, read-out: MIC

| Structure (SMILES) | MIC [2] | MIC [7] | MIC [8] | MIC [10] | MIC [1, 22] | MIC [3, 23] | MIC [4, 24] | MIC [5, 25] | MIC [6, 26] | MIC [9, 27] | Survivals percent (%) on day 4 [14, 28] | Survivals percent (%) on day 4 [14, 29] | Survivals percent (%) on day 4 [14, 30] | Survivals percent (%) on day 4 [14, 31] | Survivals percent (%) on day 4 [14, 32] | Survivals percent (%) on day 4 [14, 33] | MIC [11, 34] | MIC [12, 35] | MIC [13, 36] | also measured |
| --- | --- | --- | --- | --- | --- | --- | --- | --- | --- | --- | --- | --- | --- | --- | --- | --- | --- | --- | --- | --- |
| CC(C)(ON=C(C(=O)NC1C(=O)N2C(C(=O)[O-])=C(C[n+]3ccccc3)CSC12)c1csc(N)n1)C(=O)O (stereo not drawn) [Comparative compound A] | 25 ng/mL (≈ 0.0457 µM) | 0.39 µg/mL (≈ 0.714 µM) | 0.78 µg/mL (≈ 1.43 µM) | 0.2 µg/mL (≈ 0.366 µM) | – | – | – | – | – | – | – | – | – | – | – | – | – | – | – | MIC ([1]; Pseudomonas aeruginosa, NCTC10490, 16 h): 0.39 µg/mL (≈ 0.714 µM); MIC ([3]; 16 h): 1.56 µg/mL (≈ 2.85 µM); MIC ([4]; 16 h): 1.56 µg/mL (≈ 2.85 µM); MIC ([5]; Pseudomonas aeruginosa, PAO1, 16 h): 0.1 µg/mL (≈ 0.183 µM); MIC ([6]; Micrococcus luteus, ATCC9341, 16 h): 6.3 ng/mL (≈ 0.0115 µM); MIC ([9]; 16 h): 6.3 ng/mL (≈ 0.0115 µM); MIC ([11]; 16 h): 1.56 µg/mL (≈ 2.85 µM); MIC ([12]; Pseudomonas aeruginosa, IFO3445, 16 h): 1.56 µg/mL (≈ 2.85 µM); MIC ([13]; Enterobacter cloacae, 963, 16 h): 0.2 µg/mL (≈ 0.366 µM) |
| CON=C(C(=O)NC1C(=O)N2C(C(=O)O)=C(CSc3nnnn3C)CSC12)c1csc(N)n1 (stereo not drawn) [Comparative compound B] | 6.3 ng/mL (≈ 0.0123 µM) | 0.39 µg/mL (≈ 0.762 µM) | 0.78 µg/mL (≈ 1.52 µM) | 0.05 µg/mL (≈ 0.0977 µM) | 0.39 µg/mL (≈ 0.762 µM) | 3.12 µg/mL (≈ 6.1 µM) | 0.2 µg/mL (≈ 0.391 µM) | 12.5 µg/mL (≈ 24.4 µM) | 390 ng/mL (≈ 0.762 µM) | 25 ng/mL (≈ 0.0489 µM) | 0% | 20% | 30% | 40% | 40% | 40% | 0.78 µg/mL (≈ 1.52 µM) | 12.5 µg/mL (≈ 24.4 µM) | 0.2 µg/mL (≈ 0.391 µM) | – |
| CO/N=C(\C(=O)N[C@@H]1C(=O)N2C(C(=O)[O-])=C(C[N+]34CCCC3CCC4)CS[C@H]12)c1csc(N)n1 (stereo partly drawn) [Compound (100), (6R,7R)-7-[(Z)-2-(2-aminothiazol-4-yl)-2-meth-oxyiminoacetoamido]-3-(1-azabicyclo[3,3,0]octane-l-io)methyl-3-cephem-4-carboxylate] | < 6.3 ng/mL | 0.05 µg/mL (≈ 0.0987 µM) | 0.39 µg/mL (≈ 0.77 µM) | 0.05 µg/mL (≈ 0.0987 µM) | 0.025 µg/mL (≈ 0.0493 µM) | 0.39 µg/mL (≈ 0.77 µM) | 0.2 µg/mL (≈ 0.395 µM) | 0.1 µg/mL (≈ 0.197 µM) | < 6.3 ng/mL | < 6.3 ng/mL | 40% | 40% | 50% | 100% | 100% | 100% | 0.39 µg/mL (≈ 0.77 µM) | 1.56 µg/mL (≈ 3.08 µM) | 0.05 µg/mL (≈ 0.0987 µM) | MIC [15]: 0.025 µg/mL (≈ 0.0493 µM); Survival percent (%) Injection before one hour ([16]; 0.5 mg/head subcutaneously one hour before intraperitoneal E.coli 81 (5 x 10^5 cell/head), survival on day 4, mice): 100%; Survival percent (%) Injection before three hours ([16]; 0.5 mg/head subcutaneously three hours before intraperitoneal E.coli 81 (5 x 10^5 cell/head), survival on day 4, mice): 100%; duration of antibiotic activity ([16]; conclusion in words drawn from Table IV): excellent in duration of antibabiotic activity |
| CO/N=C(\C(=O)N[C@@H]1C(=O)N2C(C(=O)[O-])=C(C[N+]34CCCCC3CCCC4)CS[C@H]12)c1csc(N)n1 (stereo partly drawn) [Compound (104), (6R,7R)-[(Z)-2-(2-aminothiazol-4-yl)-2-methoxyiminoacetoamido]-3-(1-azabicyclo [4,4,0]decane-1-io) methyl-3-cephem-4-carboxylate] | – | – | – | – | – | – | – | – | – | – | – | – | – | – | – | – | 0.39 µg/mL (≈ 0.729 µM) | 1.56 µg/mL (≈ 2.92 µM) | 0.1 µg/mL (≈ 0.187 µM) | MIC [17]: 0.0125 µg/mL (≈ 0.0234 µM); MIC [18]: 0.025 µg/mL (≈ 0.0468 µM); MIC [19]: 0.025 µg/mL (≈ 0.0468 µM); MIC [20]: 0.0125 µg/mL (≈ 0.0234 µM); MIC [21]: 0.025 µg/mL (≈ 0.0468 µM) |

Source: patent EP0172919A1, “CEPHALOSPORIN DERIVATIVES, PROCESS FOR THEIR PREPARATION, AND THEIR PHARMACEUTICAL USE” (TEIJIN LIMITED, priority 1984, dated 1985)
